The values below come from patent publication US10398715B2, “Methods for increasing brain functionality using 2-fucosyl-lactose” (priority 2012, dated 2019).

Test [1] concerns hippocampal CA3-CA1 synapse. Description: Hippocampal LTP response in early stressed maternally deprived mice (fEPSP recordings). The test is classed as in vivo, C57BL/6 mice. The conditions noted are these: MS-stressed mice, AIN93G diet supplemented with 2-fucosyllactose (~7 mg/day/mouse) for eight weeks; compared with the control groups, p<0.05; FIG. 1. As to the method: In this Example, the effect of 2-fucosyl-lactose on hippocampal LTP response in early stressed maternally deprived mice was analyzed.
Initially, mice pups were early stressed using a model of maternal separation. Particularly, one day after delivery, C57BL/6 mice pups were sexed and grouped as sham (non-stressed Control group) or maternally separated (MS—stressed group) animals. From day 2 until day 14 after delivery, the MS pups were removed from the dam and kept isolated for a period of 4 hours per day, typically, from 10:00 AM to 2:00 PM, in a thermostatted cup. During the same time period, pups from the sham group were daily handled for a period of five minutes in order to receive the same grade of habituation to a researcher's hands as the MS pups.
Each dam had litters of 4 males and 2 females. Females were allowed to stay with the mother, while males were maternally deprived in order to avoid stressing the dam by removing all of the pups. […]
At the nutritional intervention stage, mice were fed experimental diets for a period of eight weeks. […] The recording electrodes were fixed at the site where a reliable monosynaptic field excitatory post-synaptic potential (fEPSP) was recorded. […]
For evoking LTP, each animal was presented with five 200 Hz, […] trains of pulses at a rate of 1/s. […] After, fEPSPs were recorded again for 30 minutes. […]

Test [2] relates to hippocampal CA3-CA1 synapse. In words: Input/output curves evoked at the hippocampal CA3-CA1 synapse in alert behaving rats. The test is classed as in vivo, Sprague Dawley rats. Particulars: 1 g/kg p.o. in gelatin, 90 and 180 minutes after administration vs before, FIG. 2. Here is the method: (§1) In this Example, the effect of 2FL on LTP of the hippocampal CA3-CA1 synapse in alert behaving rats was analyzed,
(§2) A total of four male Sprague Dawley rats, each 2 months old weighing from 150-200 g, were placed in individual cages with food and water ad libitum. Rats were kept on a 12/12 hour light/dark cycle with constant ambient temperature (22±1° C.) and humidity (50±7%). All tests were conducted during the light cycle.
(§3) The rats were anesthetized with 0.8%-3% isofluorane (available from AstraZeneca, Madrid, Spain) delivered via a home-made mask. […] was administered from a calibrated Fluotec 5 vaporizer (available from Fluotec-Ohmeda, Tewksbury, Mass.) at a flow rate of 1-4 L/min oxygen. Once anesthetized, the rats were implanted with stimulating and recording electrodes in the hippocampus. […] The recording electrodes were fixed at the site where a reliable monosynaptic field excitatory post-synaptic potential (fEPSP) was recorded. […]
(§4) Control values for input/output curves and paired-pulse facilitation in the four rats were determined. […]

Test [3] relates to hippocampal CA3-CA1 synapse. Description: Paired-pulse test in alert behaving rats. The conditions noted are these: 1 g/kg p.o., before, 90 min and 180 min after administration, FIG. 3. The test is classed as in vivo, Sprague Dawley rats. Here is the method:
as §1, §2, §3, §4

The test system of test [4] is hippocampal CA3-CA1 synapse. Description: LTP induction in behaving rats. The test is classed as in vivo, Sprague Dawley rats. The conditions noted are these: after 15 days of daily administration of 1 g/kg, vs control values, FIG. 4. Here is the method:
as §1, §2, §3
For evoking LTP, each rat was presented with five 200 Hz, 100 ms trains of pulses at a rate of 1/s. […] After, fEPSPs were recorded again for 30 minutes. […]

Test [5] deals with Acetylcholinesterase (AChE). In words: Acetylcholinesterase (AChE) levels in zebrafish embryos. The test is classed as in vivo. Particulars: zebrafish larvae, 74.73 mg per liter, 24 hours at 26° C.; negative control water; FIG. 5. As to the method: In this Example, the effect of 2FL on Acetylcholinesterase (AChE) in zebrafish embryos was analyzed.
Zebrafish embryos were grown in water for 96 post-fertilization hours, when eclosion occurs. The larvae were then transferred into a 24-well culture dish and incubated for 24 hours at 26° C. in a dilution of 74.73 mg of 2FL per liter. A negative control (water) and a positive control for AChE (100 mg docosahexaenoic acid/liter) were included in the assay.
After incubation, larvae were homogenized and centrifuged. AChE levels and total protein content were determined in the resultant supernatants. Two separate assays were done in triplicates. Specific AChE activity data were referred to control and analyzed by ANOVA. Bonferroni post hoc tests were used for comparisons.

Turning to 2-fucosyl-lactose [2FL], the “potentiation of field excitatory post-synaptic potentials evoked at the hippocampal CA3-CA1 synapse” value in test [1] is on record as “larger, longer-lasting potentiation”. Besides, the “amplitude of fEPSPs evoked at the CA3-CA1 synapse (input/output curves)” value in test [2] is on record as “significantly larger”. In addition, the “paired-pulse facilitation, differences between the three recording sessions” value in test [3] was “no significant differences”. Further, the “fEPSPs of LTP evoked after HFS of the hippocampal CA3-CA1 synapse” value in test [4] is recorded as “significantly larger fEPSPs than control values”. The “AChE levels compared to the negative control” value in test [5] is “significant increase”.
